pIC50: −log10 of the molar value.
Tests used:
[1] = target: T1, AR protein in VCaP xenograft tumor tissue (Homo sapiens, UniProt P10275); assay: Pharmacodynamics in VCaP xenograft tumor tissue in mice (immunoblotting); type: in vivo; conditions: SCID mice, single dose 50 mg/kg IP
T1 construct: resected control and treated VCaP xenograft tumor tissues were ground into powder in liquid nitrogen and lysed; from tissue; host or cells: VCaP xenograft tumor tissue from SCID mice
T1 sequence (P10275 1-920): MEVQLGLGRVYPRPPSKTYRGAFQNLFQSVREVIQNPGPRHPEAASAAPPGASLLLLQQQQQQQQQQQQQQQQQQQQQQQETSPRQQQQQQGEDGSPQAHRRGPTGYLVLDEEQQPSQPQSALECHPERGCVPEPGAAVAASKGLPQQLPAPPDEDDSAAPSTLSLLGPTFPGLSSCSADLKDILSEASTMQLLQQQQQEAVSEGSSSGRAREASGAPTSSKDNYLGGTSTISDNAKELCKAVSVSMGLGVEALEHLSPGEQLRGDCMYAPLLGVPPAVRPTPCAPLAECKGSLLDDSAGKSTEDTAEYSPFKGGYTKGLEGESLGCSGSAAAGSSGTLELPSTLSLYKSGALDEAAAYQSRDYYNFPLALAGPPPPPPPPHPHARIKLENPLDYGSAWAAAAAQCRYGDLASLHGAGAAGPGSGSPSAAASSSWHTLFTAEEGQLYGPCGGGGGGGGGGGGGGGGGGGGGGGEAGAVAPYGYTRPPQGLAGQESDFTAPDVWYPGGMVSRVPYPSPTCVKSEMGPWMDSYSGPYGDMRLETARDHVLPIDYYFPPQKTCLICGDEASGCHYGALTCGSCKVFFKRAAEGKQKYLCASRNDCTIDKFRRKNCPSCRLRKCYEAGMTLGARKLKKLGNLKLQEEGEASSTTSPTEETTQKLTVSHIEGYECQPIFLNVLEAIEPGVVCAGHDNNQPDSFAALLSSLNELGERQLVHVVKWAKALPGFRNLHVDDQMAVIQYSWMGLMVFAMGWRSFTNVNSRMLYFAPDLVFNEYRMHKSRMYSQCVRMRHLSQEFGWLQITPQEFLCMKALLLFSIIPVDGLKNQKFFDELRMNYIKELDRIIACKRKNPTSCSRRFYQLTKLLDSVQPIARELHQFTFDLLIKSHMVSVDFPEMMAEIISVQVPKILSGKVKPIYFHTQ
Protocol: FIG. 9 is an image of an immunoblotting analysis of a pharmacodynamics (PD) study of AR degrader 34 (ARD-69) in VCaP tumor tissue in mice. SCID mice bearing xenograft VCaP tumors were treated with a single dose of 34 (ARD-69) (IP, 50 mg/kg). Tumor tissues were harvested at the indicated time points for immunoblotting.
Pharmacodynamics Studies in the VCaP Xenograft Models in Mice. All animal experiments were performed under the guidelines of the University of Michigan Committee for Use and Care of Animals and using an approved animal protocol (PI, Shaomeng Wang). Xenograft tumors were established by injecting 5×10^6 VCaP cells in 50% Matrigel subcutaneously on the dorsal side of severe combined immunodeficient (SCID) mice, obtained from Charles River, one tumor per mouse. When tumors reached ˜100 mm^3, mice were randomly assigned to treatment and vehicle control groups. Animals were monitored daily for any signs of toxicity and weighed 2-3 times per week during the treatment period and at least weekly after the treatment ended. For pharmacodynamics analysis, resected control and treated VCaP xenograft tumor tissues were ground into powder in liquid nitrogen and lysed in CST lysis buffer with halt proteinase inhibitors. Twenty micrograms of whole tumor clarified lysates were separated on 4-20% or 4-12% Novex gels. Western blots were performed as detailed in the previous section.

AR protein [2] = target: T2, AR protein (Homo sapiens, UniProt P10275); assay: AR protein degradation in VCaP cells (Western blotting); type: cell-based
T2 construct: host or cells: VCaP
T2 sequence (P10275 1-920): T1 sequence (P10275 1-920)
Protocol: (§1) Cell lines and Cell Culture: All the LNCaP, VCaP and 22RV1 cells used were purchased from American Type Culture Collection (ATCC). LNCaP and 22RV1 cells were grown in RPMI 1640 (Invitrogen), VCaP cells were grown in DMEM with Glutamax (Invitrogen). All of the cells were supplemented with 10% fetal bovine serum (Invitrogen) at 37° C. in a humidified 5% CO2 incubator.
(§2) Western Blotting. Treated cells were lysed by RIPA buffer supplemented with protease and phosphatase inhibitors. The cell lysates were separated by 4-12% SDS-PAGE gels and blotted into PVDF membranes. Software ImageJ was used to quantify the percentage of AR degradation. The net protein bands and loading controls are calculated by deducting the background from the inverted band value. The final relative quantification values are the ratio of net band to net loading control.

22RV1 cells = assay: Cell growth inhibition in 22RV1 cells (WST-8 assay); type: cell-based
Protocol: 22RV1 cells were treated with a regular culture medium for 7 days. Cell viability was determined by a WST-8 assay.
Cell lines and Cell Culture: All the LNCaP, VCaP and 22RV1 cells used were purchased from American Type Culture Collection (ATCC). […] All of the cells were supplemented with 10% fetal bovine serum (Invitrogen) at 37° C. in a humidified 5% CO2 incubator.

VCaP cells = assay: Cell growth inhibition in VCaP cells (WST-8 assay); type: cell-based
Protocol: VCaP were treated with different compounds in charcoal stripped medium in the presence of 0.1 nM of AR agonist R1881 for 7 days. Cell viability was determined by a WST-8 assay.
as §1

[3] = system: AR-regulated gene expression (PSA, TMPRSS2, FKBP5, ERG); assay: Suppression of AR-regulated gene expression in VCaP cells (qRT-PCR); type: cell-based
Protocol: Quantitative Real-Time Polymerase Chain Reaction (qRT-PCR). Real-time PCR was performed using QuantStudio 7 Flex Real-Time PCR System as described previously.^43,44 RNA was purified using the Qiagen RNase-Free DNase set, then after quantification, the extracted RNA was converted to cDNA using High Capacity RNA-to-cDNA Kit from Applied Biosystems (Thermo Fisher Scientific). The levels of AR, TMPRSS2, FKBP5, PSA(KLK3) and GAPDH were quantified using TaqMan Fast Advanced Master Mix from Applied Biosystems. The level of gene expression was evaluated using comparative CT method, which compares the CT value to GAPDH (ACT) and then to vehicle control (ΔΔCT).

LNCaP cells = assay: Cell growth inhibition in LNCaP cells (WST-8 assay); type: cell-based
Protocol: LNCaP were treated with different compounds in charcoal stripped medium in the presence of 0.1 nM of AR agonist R1881 for 7 days. Cell viability was determined by a WST-8 assay.
as §1

AR protein [4] = assay: AR protein degradation in 22RV1 cells (Western blotting); type: cell-based
Protocol: as §1, §2

[5] = charcoal stripped medium, 0.1 nM R1881, 7 days

Structure (SMILES): Cc1ncsc1-c1ccc([C@H](CC(=O)N2CCC(N3CCC(C#Cc4ccc(C(=O)NC5C(C)(C)C(Oc6ccc(C#N)c(Cl)c6)C5(C)C)cc4)CC3)CC2)NC(=O)[C@@H]2C[C@@H](O)CN2C(=O)[C@@H](NC(=O)C2(F)CC2)C(C)(C)C)cc1 (stereo partly drawn) [Compound 34, (2S,4R)—N—((S)-3-(4-((4-(((1r,3r)-3-(3-Chloro-4-cyanophenoxy)-2,2,4,4-tetramethyl-cyclobutyl)carbamoyl)phenyl)ethynyl)-[1,4′-bipiperidin]-1′-yl)-1-(4-(4-methylthiazol-5-yl)phenyl)-3-oxopropyl)-1-((S)-2-(1-fluorocyclopropane-1-carboxamido)-3,3-dimethylbutanoyl)-4-hydroxypyrrolidine-2-carboxamide]
- Persistence of AR protein reduction [1]: at least 48 h
- Persistence of PSA protein reduction [1]: 24 to 48 h
- Level of PSA protein in tumor tissue ([1]; at the 3 h time-point): effectively reduced
- Level of AR protein in tumor tissue ([1]; starting at 3 h): effectively reduced
- AR degradation (AR protein [2]; 10 nM, 24 h treatment): > 95%
- Time to effective reduction of AR protein level (AR protein [2]; 100 nM): ≤ 2 h
- AR depletion with a 4 h treatment (AR protein [2]; 100 nM, 4 h): near-complete AR depletion
- DC50 (AR protein [2]; 24 h treatment, read-out: DC50 (drug concentration that results in 50% protein degradation)): 0.76 nM
- AR degradation after pretreatment with AR antagonist (6), VHL-d, MLN4924 or MG132 (AR protein [2]; data not shown): effectively blocked
- Potency relative to enzalutamide (4) and compound 6 in cell growth inhibition (22RV1 cells; 22RV1): > 100 times
- pIC50 (22RV1 cells; 22RV1, regular culture medium, 7 days): 6.74
- Potency relative to enzalutamide (4) and compound 6 in cell growth inhibition (VCaP cells): > 100 times
- pIC50 (VCaP cells; [5]): 9.47
- Potency relative to AR antagonist 6 in suppressing AR-regulated gene transcription [3]: > 100 times
- Reduction of mRNA level of both PSA and TMPRSS2 genes ([3]; 10 nM): > 50%
- ERG gene expression ([3]; dose-dependent): suppresses
- Expression of PSA, TMPRSS2 and FKBP5 genes ([3]; dose-dependent, data not shown): effectively suppressed
- Potency relative to enzalutamide (4) and compound 6 in cell growth inhibition (LNCaP cells): > 100 times
- pIC50 (LNCaP cells; [5]): 9.60
- AR degradation (AR protein [4]; 22RV1, 1 μM, 24 h treatment): near complete degradation
- DC50 (AR protein [4]; 22RV1, 24 h treatment, read-out: DC50 (drug concentration that results in 50% protein degradation)): 10.4 nM

Source: US20220081435A1, “ANDROGEN RECEPTOR PROTEIN DEGRADERS” (THE REGENTS OF THE UNIVERSITY OF MICHIGAN, priority 2019, published 2022)
